Reference: US10045983B2, “Heteroaryl pyridone and aza-pyrodine compounds” (Genentech, Inc., priority 2011, dated 2018)

Experiment: CD69 Whole Blood Assay (CD69 Hu Blood FACS)
Type: cell-based, human
Details: Lymphocyte; human whole blood, anti-IgM activated B lymphocytes, FACS; IC70; Table 1; read-out: CD69 Hu Blood FACS IC70
Procedure, shortened: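 Compounds tested for blocking B-cell CD69 induction by flow cytometry in human whole blood, with activation via anti-human IgM goat F(ab′)2 crosslinking of surface IgM.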

| SMILES | IC70 |
| --- | --- |
| CN1CCn2nc(Nc3cc(-c4cncc(N5CCn6c(cc7c6CC(C)(C)C7)C5=O)c4CO)cn(C)c3=O)cc2C1 [Example 150, 2-[4-Hydroxymethyl-1′-methyl-5′-(5-methyl-4,5,6,7-tetrahydro-pyrazolo[1,5-a]pyrazin-2-ylamino)-6′-oxo-1′,6′-dihydro-[3,3′]bipyridinyl-5-yl]-7,7-dimethyl-3,4,7,8-tetrahydro-2H,6H-cyclopenta[4,5]pyrrolo[1,2-a]pyrazin-1-one] | 31.6 nM |
| Cn1cc(-c2ccnc(N3CCn4c(cc5c4CCCC5)C3=O)c2CO)cc(Nc2cc3n(n2)CCN(C2CC2)C3)c1=O [Example 128, 2-(4-(5-(5-Cyclopropyl-4,5,6,7-tetrahydropyrazolo[1,5-a]pyrazin-2-ylamino)-1-methyl-6-oxo-1,6-dihydropyridin-3-yl)-3-(hydroxymethyl)pyridin-2-yl)-3,4,6,7,8,9-hexahydropyrazino[1,2-a]indol-1(2H)-one] | 91.8 nM |
| C[C@@H]1CN(c2ccc(Nc3cc(-c4cncc(N5CCn6c(cc7c6CCCC7)C5=O)c4CO)cn(C)c3=O)nc2)[C@@H](C)CN1C1COC1 [Example 157] | 29.8 nM |
| C[C@H]1CN(C2COC2)CCN1c1ccc(Nc2cc(-c3ccnc(N4CCn5c(cc6c5CCCC6)C4=O)c3C3(O)COC3)cn(C)c2=O)nc1 [Example 148, (S)-2-(3-(3-Hydroxyoxetan-3-yl)-4-(1-methyl-5-(5-(2-methyl-4-(oxetan-3-yl)piperazin-1-yl)pyridin-2-ylamino)-6-oxo-1,6-dihydropyridin-3-yl)pyridin-2-yl)-3,4,6,7,8,9-hexahydropyrazino[1,2-a]indol-1(2H)-one] | 5000 nM |
| Cn1cc(-c2ccnc(-n3ncc4c5c(sc4c3=O)CCCC5)c2CO)cc(Nc2ccccn2)c1=O [Example 178, 3-[3′-Hydroxymethyl-1-methyl-6-oxo-5-(pyridin-2-ylamino)-1,6-dihydro-[3,4′]bipyridinyl-2′-yl]-6,7,8,9-tetrahydro-3H-benzo[4,5]thieno[2,3-d]pyridazin-4-one] | 1100 nM |
| CN1CCn2nc(Nc3cc(-c4ccnc(N5CCn6c(cc7c6[C@@H]6CC[C@H]7C6)C5=O)c4CO)cn(C)c3=O)cc2C1 (stereo in doubt) [Example 170, 2-(3-(hydroxymethyl)-4-(1-methyl-5-(5-methyl-4,5,6,7-tetrahydropyrazolo[1,5-a]pyrazin-2-ylamino)-6-oxo-1,6-dihydropyridin-3-yl)pyridin-2-yl)-3,4,6,7,8,9-hexahydro-6,9-methanopyrazino[1,2-a]indol-1(2H)-one] | 335 nM |
| Cn1cc(-c2ccnc(N3CCn4c(cc5c4CCCC5)C3=O)c2CO)cc(Nc2ccc(S(C)(=O)=O)cn2)c1=O [Example 117, 2-(3-(hydroxymethyl)-4-(1-methyl-5-(5-(methylsulfonyl)pyridin-2-ylamino)-6-oxo-1,6-dihydropyridin-3-yl)pyridin-2-yl)-3,4,6,7,8,9-hexahydro-pyrazino[1,2-a]indol-1(2H)-one] | 396 nM |

Same assay, conditions: Lymphocyte; human whole blood, anti-IgM activated B lymphocytes, FACS; IC70; Table 2 (unit inferred); read-out: CD69 Hu Blood FACS (IC70)

| SMILES | IC70 |
| --- | --- |
| C[C@H]1COC[C@H](C)N1C(=O)c1ccc(Nc2cc(-c3ccnc(N4CCn5c(cc6c5CC(C)(C)C6)C4=O)c3CO)nn(C)c2=O)nc1 [Example 324, 3-[4-[5-[[5-[(3 S,5 S)-3,5-dimethylmorpholine-4-carbonyl]-2-pyridyl]amino]-1-methyl-6-oxo-pyridazin-3-yl]-3-(hydroxymethyl)-2-pyridyl]-7,7-dimethyl-1,2,6,8-tetrahydrocyclopenta[3,4]pyrrolo[3,5-b]pyrazin-4-one] | 85.8 nM |
| CC(=O)N1CCn2nc(Nc3cc(-c4ccnc(N5CCc6c(sc7c6CC(C)(C)C7)C5=O)c4CO)cn(C)c3=O)cc2C1 [Example 254, 3-[4-[5-[(5-acetyl-6,7-dihydro-4H-pyrazolo[1,5-a]pyrazin-2-yl)amino]-1-methyl-6-oxo-3-pyridyl]-3-(hydroxymethyl)-2-pyridyl]-7,7-dimethyl-1,2,6,8-tetrahydrocyclopenta[3,4]thieno[1,3-c]pyridin-4-one] | 37.3 nM |
| Cn1cc(-c2ccnc(N3CCn4c(cc5c4CC(C)(C)C5)C3=O)c2CO)cc(Nc2ccc(C#N)cn2)c1=O [Example 276, 6-[[5-[2-(7,7-dimethyl-4-oxo-1,2,6,8-tetrahydrocyclopenta[3,4]pyrrolo[3,5-b]pyrazin-3-yl)-3-(hydroxymethyl)-4-pyridyl]-1-methyl-2-oxo-3-pyridyl]amino]pyridine-3-carbonitrile] | 358 nM |
| CC1c2cc(Nc3cc(-c4ccnc(N5CCn6c(cc7c6CCCC7)C5=O)c4CO)cn(C)c3=O)nn2CCN1C (centres unmarked) [Example 287, 2-[4-[5-[(4,5-dimethyl-6,7-dihydro-4H-pyrazolo[1,5-a]pyrazin-2-yl)amino]-1-methyl-6-oxo-3-pyridyl]-3-(hydroxymethyl)-2-pyridyl]-3,4,6,7,8,9-hexahydropyrazino[1,2-a]indol-1-one] | 127 nM |
| Cc1nnc(Nc2cc(-c3ccnc(N4CCn5c(cc6c5CC(C)(C)C6)C4=O)c3CO)cn(C)c2=O)s1 [Example 267, 3-[3-(hydroxymethyl)-4-[1-methyl-5-[(5-methyl-1,3,4-thiadiazol-2-yl)amino]-6-oxo-3-pyridyl]-2-pyridyl]-7,7-dimethyl-1,2,6,8-tetrahydrocyclopenta[3,4]pyrrolo[3,5-b]pyrazin-4-one] | 225 nM |
| Cn1nc(-c2ccnc(N3CCc4c(sc5c4CC(C)(C)C5)C3=O)c2CO)cc(Nc2cc3n(n2)CC(C)(C)OC3)c1=O [Example 330, 3-[4-[5-[(6,6-dimethyl-4,7-dihydropyrazolo[5,1-c][1,4]oxazin-2-yl)amino]-1-methyl-6-oxo-pyridazin-3-yl]-3-(hydroxymethyl)-2-pyridyl]-7,7-dimethyl-1,2,6,8-tetrahydrocyclopenta[3,4]thieno[1,3-c]pyridin-4-one] | 235 nM |
| Cn1nc(-c2ccnc(N3CCn4c5c(c(F)c4C3=O)CCCC5)c2CO)cc(Nc2ccncn2)c1=O [Example 263, 10-fluoro-2-[3-(hydroxymethyl)-4-[1-methyl-6-oxo-5-(pyrimidin-4-ylamino)pyridazin-3-yl]-2-pyridyl]-3,4,6,7,8,9-hexahydropyrazino[1,2-a]indol-1-one] | 2200 nM |
| CN1CCn2nc(Nc3cc(-c4ccnc(-n5ccn6c7c(cc6c5=O)CCCC7)c4CO)cn(C)c3=O)cc2C1 [Example 195, 2-[3-(hydroxymethyl)-4-[1-methyl-5-[(5-methyl-6,7-dihydro-4H-pyrazolo[1,5-a]pyrazin-2-yl)amino]-6-oxo-3-pyridyl]-2-pyridyl]-6,7,8,9-tetrahydropyrazino[1,2-a]indol-1-one] | 101 nM |
| C[C@H]1CN(C2COC2)CCN1c1ccc(Nc2cc(-c3ccnc(N4CCc5c(c(F)c6n5CCCC6)C4=O)c3CO)cn(C)c2=O)nc1 [Example 237, 10-fluoro-2-[3-(hydroxymethyl)-4-[1-methyl-5-[[5-[(2S)-2-methyl-4-(oxetan-3-yl)piperazin-1-yl]-2-pyridyl]amino]-6-oxo-3-pyridyl]-2-pyridyl]-3,4,6,7,8,9-hexahydropyrido[3,4-b]indolizin-1-one] | 46.1 nM |
| COC1CN(c2ccc(Nc3cc(-c4ccnc(N5CCn6c(cc7c6CC(C)(C)C7)C5=O)c4CO)cn(C)c3=O)nc2)C1 [Example 323, 3-[3-(hydroxymethyl)-4-[5-[[5-(3-methoxyazetidin-1-yl)-2-pyridyl]amino]-1-methyl-6-oxo-3-pyridyl]-2-pyridyl]-7,7-dimethyl-1,2,6,8-tetrahydrocyclopenta[3,4]pyrrolo[3,5-b]pyrazin-4-one] | 279 nM |
| Cn1cc(-c2ccnc(N3CCn4c(cc5c4CCCC5)C3=O)c2CO)cc(Nc2cc3n(n2)CCNC3)c1=O [Example 205, 2-[3-(hydroxymethyl)-4-[1-methyl-6-oxo-5-(4,5,6,7-tetrahydropyrazolo[1,5-a]pyrazin-2-ylamino)-3-pyridyl]-2-pyridyl]-3,4,6,7,8,9-hexahydropyrazino[1,2-a]indol-1-one] | 114 nM |
| C[C@@H]1COC[C@H](C)N1C(=O)c1ccc(Nc2cc(-c3ccnc(N4CCn5c(cc6c5CC(C)(C)C6)C4=O)c3CO)cn(C)c2=O)nc1 [Example 320, 3-[4-[5-[[5-[(3S,5R)-3,5-dimethylmorpholine-4-carbonyl]-2-pyridyl]amino]-1-methyl-6-oxo-3-pyridyl]-3-(hydroxymethyl)-2-pyridyl]-7,7-dimethyl-1,2,6,8-tetrahydrocyclopenta[3,4]pyrrolo[3,5-b]pyrazin-4-one] | 46.8 nM |
| C[C@H]1CN(C2COC2)CCN1c1ccc(Nc2cc(-c3ccnc(-n4ccc5c(cc6n5CCCC6)c4=O)c3CO)cn(C)c2=O)nc1 [Example 245, (S)-2-(3-(Hydroxymethyl)-4-(1-methyl-5-(5-(2-methyl-4-(oxetan-3-yl)piperazin-1-yl)pyridin-2-ylamino)-6-oxo-1,6-dihydropyridin-3-yl)pyridin-2-yl)-6,7,8,9-tetrahydropyrido[3,4-b]indolizin-1(2H)-one] | 65 nM |
| C[C@H]1CN(C2COC2)CCN1c1ccc(Nc2cc(-c3ccnc(N4CCn5c(cc6c5CC(C)(C)C6)C4=O)c3CO)nn(C)c2=O)nc1 [Example 224, 3-[3-(hydroxymethyl)-4-[1-methyl-5-[[5-[(2S)-2-methyl-4-(oxetan-3-yl)piperazin-1-yl]-2-pyridyl]amino]-6-oxo-pyridazin-3-yl]-2-pyridyl]-7,7-dimethyl-1,2,6,8-tetrahydrocyclopenta[3,4]pyrrolo[3,5-b]pyrazin-4-one] | 30.7 nM |
| CC(=O)N1CCc2nc(Nc3cc(-c4ccnc(N5CCn6c7c(c(F)c6C5=O)CCCC7)c4CO)cn(C)c3=O)sc2C1 [Example 234, 2-[4-[5-[(5-acetyl-6,7-dihydro-4H-thiazolo[5,4-c]pyridin-2-yl)amino]-1-methyl-6-oxo-3-pyridyl]-3-(hydroxymethyl)-2-pyridyl]-10-fluoro-3,4,6,7,8,9-hexahydropyrazino[1,2-a]indol-1-one] | 183 nM |
| Cc1cc(Nc2cc(-c3ccnc(N4CCn5c(cc6c5CC(C)(C)C6)C4=O)c3CO)cn(C)c2=O)nn1C [Example 218, 3-[4-[5-[(1,5-dimethylpyrazol-3-yl)amino]-1-methyl-6-oxo-3-pyridyl]-3-(hydroxymethyl)-2-pyridyl]-7,7-dimethyl-1,2,6,8-tetrahydrocyclopenta[3,4]pyrrolo[3,5-b]pyrazin-4-one] | 74.1 nM |
